Experimental data published in patent US20260174905A1, “COMPOSITIONS AND METHODS FOR IMPROVED ADENOVIRAL-BASED GENE THERAPY UTILIZING CORT[…]” (Pacira Therapeutics, Inc., priority 2023, published 2026).

What was measured:
rat knee joint = experiment: Synovial/periarticular inflammation in rat knee joint after intraarticular HDAd-LacZ with or without TAC; assay type: in vivo; conditions: coadministration of 0.06 mg TAC with HDAd-LacZ
Protocol: Rats obtained from Envigo (Indianapolis, IN) were housed in polycarbonate cages, 4 animals per cage. After 4 days acclimatization, on study day 0, animals (mean weight of 310 g) were randomized into groups by bodyweight, 6 animals per group. Following randomization, test article administration was performed by intraarticular injection of 50 μL/joint. In respective groups, animals were treated with: 5E7 VP HDAd-LacZ, 5E8 VP HDAd-LacZ, 5E9 VP HDAd-LacZ, 5E10 VP HDAd-LacZ, 5E7 VP HDAd-LacZ+0.06 mg TAC, 5E8 VP HDAd-LacZ+0.06 mg TAC, 5E9 VP HDAd-LacZ+0.06 mg TAC, 5E10 VP HDAd-LacZ+0.06 mg TAC or vehicle.
For the groups co-treated with HDAd-LacZ and TAC, TAC suspension was prepared by diluting the commercially available injectable suspension (Kenalog 10, Bristol-Myers Squibb) with isotonic saline solution and added to the HDAd-LacZ preparation (i.e. the injection volume of 50 μL of the test article+TAC mixture contained 0.06 mg TAC).
At necropsy on study day 4, the rats were anesthetized with isoflurane. […]
The tissues were evaluated by the investigator microscopically for inflammation and X-gal staining in a blinded manner. The approximate lengths of the medial and lateral synovia were measured using an ocular micrometer. The lengths of the X-gal-stained areas were measured, and the length of staining relative to the total length of the area (%) was determined. […]

HEK293 cells = experiment: HDAd-LacZ infection with corticosteroid, X-Gal staining for LacZ expression in HEK293 cells; assay type: cell-based; conditions: dose range of corticosteroid with HDAd-LacZ
Protocol: Methods: 116 cells or HEK293 cells were seeded in 12-well or 96-well plates in standard cell culture media. One day later, cells were infected with the gene therapy vector HDAd-LacZ (a helper-dependent adenoviral vector expressing beta-galactosidase (LacZ) under the control of the constitutive CMV promoter) at different multiplicities of infections (MOIs; virus particles per cells seeded) mixed with different amounts/concentrations of the corticosteroids triamcinolone acetonide (TAC; TriamHEXAL®, Hexal AG, Holzkirchen, Germany), betamethasone (Celestan®, MSD, Kenilworth, NJ, USA), or dexamethasone (Lipotalon®, Recordati, Milan, Italy). HDAd-LacZ was produced by GeneQuine Biotherapeutics GmbH (HDAd-LacZ originally sourced from Baylor College of Medicine, USA). In an experiment evaluating different timing or administration of the corticosteroid relative to administration of the HDAs-LacZ, cells were either pre-treated with TAC 3 hours prior to infection with HDAd-LacZ (PRE), TAC treatment and HDAd-LacZ infection was done simultaneously as described above (SIMULTANEOUS), or cells were treated with TAC 3 hours post infection with HDAd-LacZ (POST). One day later, supernatants were aspirated and cell monolayers were stained for LacZ expression using the X-Gal staining kit according to manufacturer's manual (OZ Bioscience, Marseille, France). Macroscopic and microscopic (at 4× or 10× magnification) photos of the stained monolayers were taken (blue staining indicates LacZ expression). A preliminary measure of intensity of the staining was semi-quantitatively measured using ImageJ software by converting the images to 8-bit grayscale and drawing regions of interest around the areas to be measured. The mean intensity values (on a scale of 0-255; 0 being black and 255 being white) were subtracted from 255, divided by 255 and multiplied by 100, i.e. reported values were on a scale of 0-100 (0 being white and 100 being black) where higher values indicate more intense (darker) staining.

| SMILES | HDAd-LacZ mediated inflammation (synovial/periarticular) (rat knee joint) | concentration at which enhancement of HDAd-mediated LacZ expression started (HEK293 cells) [ng/mL] |
| --- | --- | --- |
| CC1(C)O[C@@H]2C[C@H]3[C@@H]4CCC5=CC(=O)C=C[C@]5(C)[C@@]4(F)[C@@H](O)C[C@]3(C)[C@]2(C(=O)CO)O1 [TAC, triamcinolone acetonide] | reduced | 0.18 |
| C[C@H]1C[C@H]2[C@@H]3CCC4=CC(=O)C=C[C@]4(C)[C@@]3(F)[C@@H](O)C[C@]2(C)[C@@]1(O)C(=O)CO [betamethasone] | – | 3.9 |
| C[C@@H]1C[C@H]2[C@@H]3CCC4=CC(=O)C=C[C@]4(C)[C@@]3(F)[C@@H](O)C[C@]2(C)[C@@]1(O)C(=O)CO [dexamethasone] | – | 3.9 |
